Laboratory results as given in patent publication US20260262643A1, “HERBICIDAL BENZOXAZINES” (FMC CORPORATION, priority 2022, published 2026).

How the values were obtained:
soybean [1] = experiment: Test C postemergence; assay type: in vivo, Glycine max; details: Postemergence, 125 g ai/ha; 0 to 100 scale (0 no effect, 100 complete control), 10 days
Method in brief: (§1)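 Greenhouse herbicide screen, 10-day duration. Test chemicals in solvent/surfactant blend were sprayed onto soil at sowing (pre) or onto 2–10 cm seedlings at one to two leaves (post); injury scored visually against controls, 0 no effect to 100 complete control.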

ducksalad = experiment: Test D flooded paddy test; assay type: in vivo, Heteranthera limosa; details: 250 g ai/ha, applied to paddy water, visual rating after 13 to 14 days, scale 0 to 100 (0 no effect, 100 complete control)
Method in brief: (§2)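 Plants grown to the 2-leaf stage; pots flooded to 3 cm above soil at treatment and held at that depth throughout. Test compounds applied directly to the paddy water. After 13 to 14 days in a greenhouse, response was rated visually versus controls on a 0 (no effect) to 100 (complete control) scale.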

barnyardgrass [2] = experiment: Test C postemergence; assay type: in vivo, Echinochloa crusgalli; details: 10 days, 0 to 100 scale (0 no effect, 100 complete control)
Method in brief: as §1

soybean [3] = experiment: Test C preemergence; assay type: in vivo, Glycine max
Method in brief: as §1

blackgrass [4] = experiment: Test C preemergence; assay type: in vivo, Alopecurus myosuroides
Method in brief: as §1

corn [5] = experiment: Test C preemergence; assay type: in vivo, Zea mays
Method in brief: as §1

ragweed [6] = experiment: Test C postemergence; assay type: in vivo, Ambrosia artemisiifolia; details: Postemergence, 125 g ai/ha; 0 to 100 scale (0 no effect, 100 complete control), 10 days
Method in brief: as §1

barnyardgrass [7] = experiment: Test C preemergence; assay type: in vivo, Echinochloa crusgalli
Method in brief: as §1

ragweed [8] = experiment: Test C preemergence; assay type: in vivo, Ambrosia artemisiifolia
Method in brief: as §1

ryegrass, Italian [9] = experiment: Test C postemergence; assay type: in vivo, Lolium multiflorum; details: Postemergence, 125 g ai/ha; 0 to 100 scale (0 no effect, 100 complete control), 10 days
Method in brief: as §1

oat, wild [10] = experiment: Test C postemergence; assay type: in vivo, Avena fatua; details: 10 days, 0 to 100 scale (0 no effect, 100 complete control)
Method in brief: as §1

kochia [11] = experiment: Test C postemergence; assay type: in vivo, Bassia scoparia; details: 10 days, 0 to 100 scale (0 no effect, 100 complete control)
Method in brief: as §1

pigweed, palmer [12] = experiment: Test C postemergence; assay type: in vivo, Amaranthus palmeri; details: 10 days, 0 to 100 scale (0 no effect, 100 complete control)
Method in brief: as §1

sedge, umbrella = experiment: Test D flooded paddy test; assay type: in vivo, Cyperus difformis; details: 250 g ai/ha, applied to paddy water, visual rating after 13 to 14 days, scale 0 to 100 (0 no effect, 100 complete control)
Method in brief: as §2

green foxtail [13] = experiment: Test C postemergence; assay type: in vivo, Setaria viridis; details: 10 days, 0 to 100 scale (0 no effect, 100 complete control)
Method in brief: as §1

pigweed, palmer [14] = experiment: Test C preemergence; assay type: in vivo, Amaranthus palmeri
Method in brief: as §1

barnyardgrass [15] = experiment: Test D flooded paddy test; assay type: in vivo, Echinochloa crus-galli; details: 250 g ai/ha, applied to paddy water, visual rating after 13 to 14 days, scale 0 to 100 (0 no effect, 100 complete control)
Method in brief: as §2

rice = experiment: Test D flooded paddy test; assay type: in vivo, Oryza sativa; details: 250 g ai/ha, applied to paddy water, visual rating after 13 to 14 days, scale 0 to 100 (0 no effect, 100 complete control)
Method in brief: as §2

wheat [16] = experiment: Test C preemergence; assay type: in vivo, Triticum aestivum
Method in brief: as §1

horseweed = experiment: Test C postemergence; assay type: in vivo, Erigeron canadensis; details: 10 days, 0 to 100 scale (0 no effect, 100 complete control)
Method in brief: as §1

corn [17] = experiment: Test C postemergence; assay type: in vivo, Zea mays; details: 10 days, 0 to 100 scale (0 no effect, 100 complete control)
Method in brief: as §1

oat, wild [18] = experiment: Test C preemergence; assay type: in vivo, Avena fatua
Method in brief: as §1

wheat [19] = experiment: Test C postemergence; assay type: in vivo, Triticum aestivum; details: Postemergence, 125 g ai/ha; 0 to 100 scale (0 no effect, 100 complete control), 10 days
Method in brief: as §1

ryegrass, Italian [20] = experiment: Test C preemergence; assay type: in vivo, Lolium multiflorum
Method in brief: as §1

blackgrass [21] = experiment: Test C postemergence; assay type: in vivo, Alopecurus myosuroides; details: 10 days, 0 to 100 scale (0 no effect, 100 complete control)
Method in brief: as §1

kochia [22] = experiment: Test C preemergence; assay type: in vivo, Bassia scoparia
Method in brief: as §1

galium = experiment: Test C postemergence; assay type: in vivo, Galium aparine; details: 10 days, 0 to 100 scale (0 no effect, 100 complete control)
Method in brief: as §1

green foxtail [23] = experiment: Test C preemergence; assay type: in vivo, Setaria viridis
Method in brief: as §1

[24] = 500 g ai/ha, preemergence, 0 to 100 scale (0 no effect, 100 complete control)
[25] = Preemergence, 125 g ai/ha, 0 to 100 scale, 0 no effect, 100 complete control

With `CCOC[C@H]1CN(C(=O)c2cc(-n3cnc(C(C)C)n3)cc3c2OCCO3)c2cccc(Cl)c2O1` [Compound 396] the “Plant response rating, Soybean” value (soybean [1]) was 100, the “Plant response rating, Ducksalad (Flood)” value (ducksalad) was 0 and the “Plant response rating, Barnyardgrass” value (barnyardgrass [2]; 500 g ai/ha, postemergence) was 50. The “Plant response rating, Barnyardgrass” value (barnyardgrass [2]; Postemergence, 125 g ai/ha) was 30, the “Soybean plant response rating” value (soybean [3]; [24]) was 100 and the “Plant response rating, Soybean” value (soybean [3]; [25]) was 60. For the same compound, the “Blackgrass plant response rating” value (blackgrass [4]; [24]) was 40, the “Plant response rating, Blackgrass” value (blackgrass [4]; [25]) was 20 and the “Corn plant response rating” value (corn [5]; [24]) was 40. The “Plant response rating, Corn” value (corn [5]; [25]) was 10, the “Plant response rating, Ragweed” value (ragweed [6]) was 70 and the “Barnyardgrass plant response rating” value (barnyardgrass [7]; [24]) was 90. For the same compound, the “Plant response rating, Barnyardgrass” value (barnyardgrass [7]; [25]) was 50, the “Ragweed plant response rating” value (ragweed [8]; [24]) was 90 and the “Plant response rating, Ragweed” value (ragweed [8]; [25]) was 80. For the same compound, the “Plant response rating, Ryegrass, Italian” value (ryegrass, Italian [9]) was 0, the “Plant response rating, Oat, Wild” value (oat, wild [10]; 500 g ai/ha, postemergence) was 40 and the “Plant response rating, Oat, Wild” value (oat, wild [10]; Postemergence, 125 g ai/ha) was 20. The “Plant response rating, Kochia” value (kochia [11]; 500 g ai/ha, postemergence) was 100, the “Plant response rating, Kochia” value (kochia [11]; Postemergence, 125 g ai/ha) was 80 and the “Plant response rating, Pigweed, Palmer” value (pigweed, palmer [12]; 500 g ai/ha, postemergence) was 90. The “Plant response rating, Pigweed, Palmer” value (pigweed, palmer [12]; Postemergence, 125 g ai/ha) was 90, the “Plant response rating, Sedge, Umbrella (Flood)” value (sedge, umbrella) was 0 and the “Plant response rating, Foxtail, Green” value (green foxtail [13]; 500 g ai/ha, postemergence) was 80. The “Plant response rating, Foxtail, Green” value (green foxtail [13]; Postemergence, 125 g ai/ha) was 60, the “Pigweed, Palmer plant response rating” value (pigweed, palmer [14]; [24]) was 100 and the “Plant response rating, Pigweed, Palmer” value (pigweed, palmer [14]; [25]) was 100. The “Plant response rating, Barnyardgrass (Flood)” value (barnyardgrass [15]) was 0, the “Plant response rating, Rice (Flood)” value (rice) was 0 and the “Wheat plant response rating” value (wheat [16]; [24]) was 30. For the same compound, the “Plant response rating, Wheat” value (wheat [16]; [25]) was 0, the “Plant response rating, Horseweed” value (horseweed; 500 g ai/ha, postemergence) was 60 and the “Plant response rating, Horseweed” value (horseweed; Postemergence, 125 g ai/ha) was 0. The “Plant response rating, Corn” value (corn [17]; 500 g ai/ha, postemergence) was 60, the “Plant response rating, Corn” value (corn [17]; Postemergence, 125 g ai/ha) was 50 and the “Oat, Wild plant response rating” value (oat, wild [18]; [24]) was 90. The “Plant response rating, Oat, Wild” value (oat, wild [18]; [25]) was 30, the “Plant response rating, Wheat” value (wheat [19]) was 20 and the “Ryegrass, Italian plant response rating” value (ryegrass, Italian [20]; [24]) was 90. For the same compound, the “Plant response rating, Ryegrass, Italian” value (ryegrass, Italian [20]; [25]) was 60, the “Plant response rating, Blackgrass” value (blackgrass [21]; 500 g ai/ha, postemergence) was 70 and the “Plant response rating, Blackgrass” value (blackgrass [21]; Postemergence, 125 g ai/ha) was 30. For the same compound, the “Kochia plant response rating” value (kochia [22]; [24]) was 90, the “Plant response rating, Kochia” value (kochia [22]; [25]) was 70 and the “Plant response rating, Galium” value (galium; 500 g ai/ha, postemergence) was 100. The “Plant response rating, Galium” value (galium; Postemergence, 125 g ai/ha) was 100, the “Foxtail, Green plant response rating” value (green foxtail [23]; [24]) was 100 and the “Plant response rating, Foxtail, Green” value (green foxtail [23]; [25]) was 90.
